Literature values, collected in patent US9662359B2, “Compositions and methods for treating depression” (Alexander Vuckovic, M.D., LLC, priority 2010, dated 2017).

Conditions: oral SAMe

## S-Adenosyl methionine [SAMe]
  half-life: about 100 minutes
